According to US20220380310A1, “P2X7R ANTAGONISTS” (priority 2019, published 2022):

The compounds below were run against T1, Human P2X4 receptor (P2X4R) (Homo sapiens, UniProt Q99571) (assay: Receptor-mediated calcium entrance assay (Calcium Assay), P2X4R transfected HEK-293 cells). Details: HEK293, compound at 5 μM, 1 mM ATP stimulus, read-out: Percentage of activity remains in the presence of the compound at 5 μM, P2X4R (Calcium Assay).
T1 construct: expressed in transfected cells; host or cells: HEK-293
T1 sequence (Q99571 1-388): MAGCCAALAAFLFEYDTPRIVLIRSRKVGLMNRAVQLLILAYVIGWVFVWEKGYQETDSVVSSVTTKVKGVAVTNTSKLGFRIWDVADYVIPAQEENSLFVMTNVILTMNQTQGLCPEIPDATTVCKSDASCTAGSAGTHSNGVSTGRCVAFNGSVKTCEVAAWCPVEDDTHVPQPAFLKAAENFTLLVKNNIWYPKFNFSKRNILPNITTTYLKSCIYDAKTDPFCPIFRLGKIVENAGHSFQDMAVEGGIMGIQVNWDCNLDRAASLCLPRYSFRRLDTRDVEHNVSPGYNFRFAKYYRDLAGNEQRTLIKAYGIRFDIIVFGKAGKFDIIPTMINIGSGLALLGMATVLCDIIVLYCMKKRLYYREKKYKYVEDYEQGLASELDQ
Assay type: cell-based
Description: (§1) Human P2X1 receptor (P2X1R) is a member of P2X family. […] Thus, the calcium assay was used. In the calcium assay, P2X receptor activation leads to opening of ion channels, which increases intracellular calcium concentration. The increased intracellular calcium concentration can be detected by a calcium indicator dye such as Fluo-4 or Fluo-8. Molecular Probes™ Fluo-4, AM (Cat. No. F14201 from Fisher Scientific) was used in the assay. The procedures were similar as described in the Yo-Pro-1 assay until day 4. The construct of P2X1R for transient transfection to HEK-293 cells was the courtesy from Dr. Richard J. Evans laboratory (J. Biol. Chem. 279:9043-9055). After transfection and expression, on day 4 cells were washed twice by Ca-HBSS (The composition (in mM) was NaCl 135, HEPES 10, D-glucose 10, KCl 5.4, CaCl2 2, and MgCl2 1, pH to 7.4 by NaOH) and incubated in dye loading solution (The solution contained 2.5 μM Fluo-4, 1 mM probenecid, and 1× PowerLoad (Cat. No. P10020 from Fisher Scientific) in Ca-HBSS) for 70 minutes at 37° C. Then the extracellular loading dye was washed away and cells were incubated at Ca-HBSS containing 1 mM probenecid for 30 minutes. Before the final steps, probenecid was washed away with Ca-HBSS. The assay was performed by adding 25 μl of Ca-HBSS followed by 25 μl of various test compounds. At this point, the base level of fluorescence was obtained through the microplate reading—the base microplate reading for this assay. At the end, the stimulus (ATP at 20 μM was the final concentration for P2X1R) was added to activate the P2X1R. Activation of P2X1R opened the channel to allow influx of calcium, which was represented by fluorescence increases that were measured by the microplate device with excitation at 475 nm and emission wavelength in the range of 500-550 nm. The data were analyzed the same way as described before: The result of each well was first normalized by its corresponding base microplate reading. Then, the negative control signal was subtracted from. In the negative control, the test compound and the stimulus were replaced by Ca-HBSS. […] An average of six highest values of the plate (AVG) were considered as 100% and the value of each well was divided by AVG and presented as the relative values in percentages.
Human P2X4 receptor (P2X4R) construct (J. Biol. Chem. 290, 7930-7942) was transiently transfected to HEK-293 cells and the calcium assay was performed as described above. When 1 mM ATP was used as stimulus, an increased receptor mediated activity leading to intracellular calcium elevation can be seen in less than 10 minutes.
`CC(C)(C)OC(=O)N1CCN(c2ccc(S(=O)(=O)N3CCN(C(=O)CCc4ccccc4)CC3)cc2)CC1` [#31] was tested, and the remaining activity at 5 µM was 81.8%.
`O=C(CCc1ccccc1)NC1CCCN(S(=O)(=O)c2ccc(F)c(Cl)c2)C1` (stereo not drawn) [#43] was tested, and the remaining activity at 5 µM was 48.4%.
For `CC1CCCCN1c1ccc(S(=O)(=O)N2CCCC(NC(=O)CCc3ccccc3)C2)cc1` (stereo not drawn) [#47], the remaining activity at 5 µM was 93.3%.
`O=C(CCc1ccccc1)NC1CCCN(c2ccc(S(=O)(=O)N3CCCC3)cc2)C1` (stereo not drawn) [#55] was tested, and the remaining activity at 5 µM was 37.7%.
`O=C(CCc1ccccc1)N1CCN(S(=O)(=O)c2ccc(N3CCCCC3)cc2)CC1` [#34] was tested, and the remaining activity at 5 µM was 53.8%.
`O=C(CCc1ccccc1)NC1CCCN(S(=O)(=O)c2ccc(N3CCCC3)cc2)C1` (stereo not drawn) [#13] was tested, and the remaining activity at 5 µM was 88.8%.
With `O=S(=O)(c1ccccc1)C1CN(S(=O)(=O)c2ccc(N3CCCCC3)cc2)C1` [#10] the remaining activity at 5 µM was 69.5%.
With `CC(C)(C)OC(=O)N1CCC(C2CCN(c3ccc(S(=O)(=O)N4CCCC(NC(=O)CCc5ccccc5)C4)cc3)CC2)CC1` (stereo not drawn) [#41] the remaining activity at 5 µM was 39.9%.
Compound `O=C(CCc1ccccc1)NC1CCCN(S(=O)(=O)c2ccc(N3CCC(Oc4ccccc4)CC3)cc2)C1` (stereo not drawn) [#38] has a remaining activity at 5 µM of 71.1%.
Work on `O=C(CCc1ccccc1)N1CCN(S(=O)(=O)c2ccc(N3CCOCC3)cc2)CC1` [#32] yielded a remaining activity at 5 µM of 91%.
`NC(=O)c1cc(Br)cc(N2CCOCC2)c1` [#28] gave a remaining activity at 5 µM of 85.4%.

What follows are compounds tested against T2, Human P2X1 receptor (P2X1R) (Homo sapiens, UniProt P51575) (assay: Receptor-mediated calcium entrance assay (Calcium Assay), P2X1R transfected HEK-293 cells). Details: HEK293, compound at 5 μM, ATP 20 μM stimulus, read-out: Percentage of activity remains in the presence of the compound at 5 μM, P2X1R (Calcium Assay).
T2 construct: expressed in transfected cells; host or cells: HEK-293
T2 sequence (P51575 1-399): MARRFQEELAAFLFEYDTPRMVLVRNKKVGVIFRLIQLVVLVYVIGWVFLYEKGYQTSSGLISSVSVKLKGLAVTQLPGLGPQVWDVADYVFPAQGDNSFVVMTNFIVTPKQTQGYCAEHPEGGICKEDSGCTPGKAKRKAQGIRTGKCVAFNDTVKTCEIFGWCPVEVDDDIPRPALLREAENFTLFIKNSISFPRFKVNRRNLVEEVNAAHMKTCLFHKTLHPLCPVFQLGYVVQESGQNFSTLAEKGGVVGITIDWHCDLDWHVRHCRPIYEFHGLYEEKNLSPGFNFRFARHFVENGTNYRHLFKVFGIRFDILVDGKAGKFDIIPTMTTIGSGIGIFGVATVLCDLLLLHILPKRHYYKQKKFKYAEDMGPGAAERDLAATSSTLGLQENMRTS
Assay type: cell-based
Description: as §1
`CC(C)(C)OC(=O)N1CCN(c2ccc(S(=O)(=O)N3CCN(C(=O)CCc4ccccc4)CC3)cc2)CC1` [#31] gave a remaining activity at 5 µM of 43.9%.
Work on `O=C(CCc1ccccc1)NC1CCCN(S(=O)(=O)c2ccc(F)c(Cl)c2)C1` (stereo not drawn) [#43] yielded a remaining activity at 5 µM of 57.1%.
Compound `CC1CCCCN1c1ccc(S(=O)(=O)N2CCCC(NC(=O)CCc3ccccc3)C2)cc1` (stereo not drawn) [#47] has a remaining activity at 5 µM of 50.1%.
Compound `O=C(CCc1ccccc1)NC1CCCN(c2ccc(S(=O)(=O)N3CCCC3)cc2)C1` (stereo not drawn) [#55] has a remaining activity at 5 µM of 53.8%.
With `O=C(CCc1ccccc1)N1CCN(S(=O)(=O)c2ccc(N3CCCCC3)cc2)CC1` [#34] the remaining activity at 5 µM was 59.3%.
`O=C(CCc1ccccc1)NC1CCCN(S(=O)(=O)c2ccc(N3CCCC3)cc2)C1` (stereo not drawn) [#13] gave a remaining activity at 5 µM of 54.2%.
In the case of `O=S(=O)(c1ccccc1)C1CN(S(=O)(=O)c2ccc(N3CCCCC3)cc2)C1` [#10], the remaining activity at 5 µM is reported as 51.5%.
With `CC(C)(C)OC(=O)N1CCC(C2CCN(c3ccc(S(=O)(=O)N4CCCC(NC(=O)CCc5ccccc5)C4)cc3)CC2)CC1` (stereo not drawn) [#41] the remaining activity at 5 µM was 46.7%.
For `O=C(CCc1ccccc1)NC1CCCN(S(=O)(=O)c2ccc(N3CCC(Oc4ccccc4)CC3)cc2)C1` (stereo not drawn) [#38], the remaining activity at 5 µM was 43.8%.
`O=C(CCc1ccccc1)N1CCN(S(=O)(=O)c2ccc(N3CCOCC3)cc2)CC1` [#32] was tested, and the remaining activity at 5 µM was 46.7%.
In the case of `NC(=O)c1cc(Br)cc(N2CCOCC2)c1` [#28], the remaining activity at 5 µM is reported as 62.6%.

Each compound was assayed against T3, P2X2R (Homo sapiens, UniProt Q9UBL9) (assay: Receptor-mediated calcium entrance assay (Calcium Assay), P2X2R). Details: compound at 5 μM, read-out: Percentage of activity remains in the presence of the compound at 5 μM, P2X2R (Calcium Assay).
T3 construct: expressed in transfected cells; host or cells: HEK-293
T3 sequence (Q9UBL9 1-471): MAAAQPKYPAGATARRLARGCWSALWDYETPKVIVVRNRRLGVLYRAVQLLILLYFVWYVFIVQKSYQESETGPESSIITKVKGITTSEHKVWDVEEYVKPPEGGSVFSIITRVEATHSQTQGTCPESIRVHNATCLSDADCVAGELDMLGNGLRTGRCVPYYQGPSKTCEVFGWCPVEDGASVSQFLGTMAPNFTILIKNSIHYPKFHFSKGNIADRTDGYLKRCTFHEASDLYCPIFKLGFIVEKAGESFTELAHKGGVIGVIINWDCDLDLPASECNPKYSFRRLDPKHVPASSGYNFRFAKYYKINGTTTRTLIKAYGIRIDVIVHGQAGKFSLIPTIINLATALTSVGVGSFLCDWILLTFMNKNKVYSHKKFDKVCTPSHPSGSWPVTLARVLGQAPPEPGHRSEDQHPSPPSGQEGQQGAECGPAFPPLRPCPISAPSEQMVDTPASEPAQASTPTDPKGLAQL
Assay type: cell-based
`CC(C)(C)OC(=O)N1CCN(c2ccc(S(=O)(=O)N3CCN(C(=O)CCc4ccccc4)CC3)cc2)CC1` [#31] was tested, and the remaining activity at 5 µM was 78.3%.
In the case of `O=C(CCc1ccccc1)NC1CCCN(S(=O)(=O)c2ccc(F)c(Cl)c2)C1` (stereo not drawn) [#43], the remaining activity at 5 µM is reported as 56%.
`CC1CCCCN1c1ccc(S(=O)(=O)N2CCCC(NC(=O)CCc3ccccc3)C2)cc1` (stereo not drawn) [#47] showed a remaining activity at 5 µM of 65.6%.
For `O=C(CCc1ccccc1)NC1CCCN(c2ccc(S(=O)(=O)N3CCCC3)cc2)C1` (stereo not drawn) [#55], the remaining activity at 5 µM was 52.7%.
`O=C(CCc1ccccc1)N1CCN(S(=O)(=O)c2ccc(N3CCCCC3)cc2)CC1` [#34] gave a remaining activity at 5 µM of 65.2%.
For `O=C(CCc1ccccc1)NC1CCCN(S(=O)(=O)c2ccc(N3CCCC3)cc2)C1` (stereo not drawn) [#13], the remaining activity at 5 µM was 67.4%.
In the case of `O=S(=O)(c1ccccc1)C1CN(S(=O)(=O)c2ccc(N3CCCCC3)cc2)C1` [#10], the remaining activity at 5 µM is reported as 69.3%.
For `CC(C)(C)OC(=O)N1CCC(C2CCN(c3ccc(S(=O)(=O)N4CCCC(NC(=O)CCc5ccccc5)C4)cc3)CC2)CC1` (stereo not drawn) [#41], the remaining activity at 5 µM was 61.1%.
Compound `O=C(CCc1ccccc1)NC1CCCN(S(=O)(=O)c2ccc(N3CCC(Oc4ccccc4)CC3)cc2)C1` (stereo not drawn) [#38] has a remaining activity at 5 µM of 52.2%.
`O=C(CCc1ccccc1)N1CCN(S(=O)(=O)c2ccc(N3CCOCC3)cc2)CC1` [#32] was tested, and the remaining activity at 5 µM was 47.8%.
`NC(=O)c1cc(Br)cc(N2CCOCC2)c1` [#28] showed a remaining activity at 5 µM of 50.7%.
